From PubChem BioAssay (NCI)
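How tested: cells in 96-well plates exposed to compound for 48 hours at five concentrations. TGI denotes the concentration required for complete inhibition of growth.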

What was measured:
Test in all cases: DTP human tumour cell line panel, 48 h
A549 NSCLC = system: A549 NSCLC
COLO 205 colon = system: COLO 205 colon
HCT-15 colon = system: HCT-15 colon
HL-60(TB) leukemia = system: HL-60(TB) leukemia
HOP-62 NSCLC = system: HOP-62 NSCLC
M14 melanoma = system: M14 melanoma
MALME-3M melanoma = system: MALME-3M melanoma
MDA-N = system: MDA-N
MOLT-4 leukemia = system: MOLT-4 leukemia
NCI-H23 lung = system: NCI-H23 lung
NCI-H460 lung = system: NCI-H460 lung
OVCAR-8 ovarian = system: OVCAR-8 ovarian
SF-295 CNS = system: SF-295 CNS
SK-MEL-5 melanoma = system: SK-MEL-5 melanoma
SNB-75 CNS = system: SNB-75 CNS
SW-620 colon = system: SW-620 colon
UACC-257 melanoma = system: UACC-257 melanoma
UACC-62 melanoma = system: UACC-62 melanoma
UO-31 renal = system: UO-31 renal
OVCAR-3 ovarian = system: OVCAR-3 ovarian

SMILES	TGI (A549 NSCLC)	TGI (COLO 205 colon)	TGI (HCT-15 colon)	TGI (HL-60(TB) leukemia)	TGI (HOP-62 NSCLC)	TGI (M14 melanoma)	TGI (MALME-3M melanoma)	TGI (MDA-N)	TGI (MOLT-4 leukemia)	TGI (NCI-H23 lung)	TGI (NCI-H460 lung)	TGI (OVCAR-8 ovarian)	TGI (SF-295 CNS)	TGI (SK-MEL-5 melanoma)	TGI (SNB-75 CNS)	TGI (SW-620 colon)	TGI (UACC-257 melanoma)	TGI (UACC-62 melanoma)	TGI (UO-31 renal)	TGI (OVCAR-3 ovarian)
COC(=O)C1CC2(CCC1=O)Cc1ccccc1C2=O (centres undefined)	> 100 µM	> 100 µM	> 100 µM	> 100 µM	> 100 µM	> 100 µM	> 100 µM	> 100 µM	> 100 µM	> 100 µM	> 100 µM	> 100 µM	> 100 µM	> 100 µM	> 100 µM	> 100 µM	> 100 µM	> 100 µM	> 100 µM	–
CCOC(=O)/C(C(=S)Nc1ccccc1)=C(/N)N1CCCC1	> 100 µM	> 100 µM	> 100 µM	> 100 µM	> 100 µM	> 100 µM	> 100 µM	84.9 µM	> 100 µM	> 100 µM	> 100 µM	> 100 µM	> 100 µM	> 100 µM	–	> 100 µM	> 100 µM	> 100 µM	> 100 µM	> 100 µM
CCOC(=O)c1c(N2CCCC2)nsc1Nc1ccccc1	> 100 µM	> 100 µM	> 100 µM	> 100 µM	–	> 100 µM	> 100 µM	> 100 µM	> 100 µM	> 100 µM	> 100 µM	> 100 µM	> 100 µM	> 100 µM	> 100 µM	> 100 µM	> 100 µM	–	> 100 µM	–
CN(C)CCNC(=O)c1cccc2c(NCC(=O)O)c3ccccc3nc12	53.5 µM	> 100 µM	> 100 µM	> 100 µM	82.5 µM	52.2 µM	35.9 µM	> 100 µM	> 100 µM	45.1 µM	–	38.5 µM	29.8 µM	67.3 µM	64 µM	> 100 µM	–	48.1 µM	> 100 µM	> 100 µM
O=C(NCc1cccnc1)NCc1cccnc1	> 100 µM	> 100 µM	> 100 µM	> 100 µM	> 100 µM	> 100 µM	> 100 µM	> 100 µM	–	> 100 µM	> 100 µM	> 100 µM	> 100 µM	> 100 µM	> 100 µM	> 100 µM	> 100 µM	> 100 µM	> 100 µM	> 100 µM
O=c1oc2ccccc2c(Nc2ccc3c(c2)S(=O)(=O)c2ccccc2O3)c1[N+](=O)[O-]	> 100 µM	47.6 µM	> 100 µM	59.2 µM	> 100 µM	> 100 µM	64.6 µM	85.3 µM	–	62.6 µM	91.7 µM	78.4 µM	77.7 µM	50.1 µM	52.4 µM	> 100 µM	58.8 µM	40 µM	99.4 µM	79 µM
COc1ccc(NC(=O)/C(=N\NC(=O)C[n+]2ccccc2)c2c(O)c3ccc(O)cc3oc2=O)c([N+](=O)[O-])c1	> 100 µM	> 100 µM	> 100 µM	> 100 µM	–	> 100 µM	> 100 µM	> 100 µM	> 100 µM	> 100 µM	> 100 µM	> 100 µM	> 100 µM	> 100 µM	> 100 µM	> 100 µM	> 100 µM	> 100 µM	> 100 µM	> 100 µM
CN(/N=C(\C(=O)O)c1ccccc1)C1=NCCCN1	> 100 µM	> 100 µM	> 100 µM	> 100 µM	> 100 µM	–	> 100 µM	> 100 µM	> 100 µM	> 100 µM	> 100 µM	> 100 µM	> 100 µM	> 100 µM	> 100 µM	> 100 µM	> 100 µM	> 100 µM	> 100 µM	> 100 µM
Cc1cc(C)c(C2=NOC(c3ccccc3)(c3cc(=O)n(-c4ccccc4)s3)O2)c(C)c1 (centres undefined)	> 100 µM	63.4 µM	41 µM	> 100 µM	> 100 µM	76.8 µM	40.1 µM	> 100 µM	> 100 µM	53.4 µM	> 100 µM	36.5 µM	> 100 µM	> 100 µM	> 100 µM	> 100 µM	> 100 µM	51.5 µM	47.1 µM	–
CC1(CCC2C=CCC2)CCCNC1=S (centres undefined)	> 10 µM	–	> 10 µM	> 10 µM	> 10 µM	> 10 µM	> 10 µM	> 10 µM	> 10 µM	> 10 µM	> 10 µM	> 10 µM	> 10 µM	> 10 µM	> 10 µM	> 10 µM	> 10 µM	> 10 µM	> 10 µM	> 10 µM
COc1c2c(cc3oc(C)cc(=O)c13)OC(=N)C(C(N)=O)C2CC(=O)c1ccc(N)cc1 (centres undefined)	> 100 µM	> 100 µM	> 100 µM	> 100 µM	–	> 100 µM	> 100 µM	> 100 µM	> 100 µM	–	> 100 µM	> 100 µM	> 100 µM	> 100 µM	> 100 µM	> 100 µM	> 100 µM	> 100 µM	> 100 µM	> 100 µM
CC1CC[C@@H](C(C)C)[C@H](Oc2nnc(C3OC(CO)C(O)C3O)o2)C1 (some centres undefined)	> 100 µM	> 100 µM	> 100 µM	> 100 µM	> 100 µM	–	> 100 µM	> 100 µM	> 100 µM	> 100 µM	> 100 µM	> 100 µM	> 100 µM	> 100 µM	> 100 µM	> 100 µM	> 100 µM	> 100 µM	> 100 µM	> 100 µM
